# Source: PMC10412605 (Nature Communications, 2023)
# T1: human mSerRS (Homo sapiens, UniProt Q9NP81)
# T1 construct: gene SARS2; aa 31-518, without N-terminal 30 residues; N-terminal GST tag (pGEX-6P1) cut by PreScission protease; expressed in E. coli BL21(DE3); homodimer
# T1 sequence (Q9NP81 31-518): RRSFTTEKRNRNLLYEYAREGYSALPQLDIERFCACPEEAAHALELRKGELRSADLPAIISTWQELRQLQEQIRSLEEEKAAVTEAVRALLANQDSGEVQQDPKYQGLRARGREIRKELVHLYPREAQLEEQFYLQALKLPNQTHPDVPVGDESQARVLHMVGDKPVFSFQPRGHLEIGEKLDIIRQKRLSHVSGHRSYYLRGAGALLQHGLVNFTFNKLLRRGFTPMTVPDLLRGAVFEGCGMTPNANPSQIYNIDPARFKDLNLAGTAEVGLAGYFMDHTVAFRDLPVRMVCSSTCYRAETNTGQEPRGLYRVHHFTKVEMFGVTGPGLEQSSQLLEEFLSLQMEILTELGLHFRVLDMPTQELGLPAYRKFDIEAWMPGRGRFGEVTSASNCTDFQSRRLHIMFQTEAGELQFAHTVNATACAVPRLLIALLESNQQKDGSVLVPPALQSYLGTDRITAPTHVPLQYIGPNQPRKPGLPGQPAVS
# B1: human mSerRS (mitochondrial seryl-tRNA synthetase) (enzyme, UniProt Q9NP81 31-518, looked up)
# chain: T1 sequence (Q9NP81 31-518)
# notes: also called mt-SerRS; not shown: GST, N-terminal, cleaved
# Columns and labels:
# [1] = molecular target: T1, human mSerRS; assay: cryo-EM structure, […] Å; type: binding; conditions: complex with stabilized mtRNASer(UGA) transcript; both active sites of the dimer occupied; pH 7.0, 7.5 mM MgCl2
# [2] = molecular target: the molecule itself; assay: mass photometry; 25 nM mSerRS, 125 nM mtRNASer(UGA), 250 nM SerSA; 20 mM HEPES pH 7.0, 100 mM NaCl, 7.5 mM MgCl2, 1 mM DTT
Molecule,"cryo-EM structure, 3.6 Å [1]",stoichiometry N [2]
"Nc1ncnc2c1ncn2[C@@H]1O[C@H](COS(=O)(=O)NC(=O)[C@@H](N)CO)[C@@H](O)[C@H]1O [SerSA, 5’-O-[N-(L-seryl)sulfamoyl] adenosine]",Both active sites are occupied by a SerSA ligand,
B1,,2
